{"source": "patent US10076503B2", "about": "(priority 2014, dated 2018)", "key": {"[1]": {"test_system": "healthy recreational stimulant users", "test": "single-dose crossover abuse potential study, placebo- and methylphenidate-controlled", "type": "in vivo, human", "source_text": "A single-dose, randomized, double-blind, double-dummy, placebo- and active-controlled crossover study with 6 Treatment Visits per subject was undertaken. […] Subjects participated in a medical screening visit (Visit 1), one 4-day inpatient qualification phase (Visit 2), a treatment phase (Visits 3 to 8) consisting of six 5-day inpatient treatment visits, and a safety follow-up visit (Visit 9). Within 21 days of the screening visit, subjects were enrolled and attended a qualification phase in which they received either 60 mg methylphenidate or matching placebo in a randomized double-blind crossover manner. Dosing times were separated by approximately 24 hours to ensure that subjects could discriminate and show positive effects of the positive control.\nHealthy female and male subjects aged 18 to 55 years (inclusive), who were recreational central nervous system (CNS) stimulant users with cocaine experience and who had passed the methylphenidate qualification phase, were randomized into the treatment.\nDrug administration occurred on Day 1 of each treatment visit followed by pharmacodynamic (PD), pharmacokinetic (PK), and safety assessments conducted for up to 72 hours post-dose. […] Subjects were randomized to one of 6 treatment sequences according to a 6×6 William square design. The capsules received at each treatment visit (Visits 3 to 8) were identical. Serial pharmacodynamic and pharmacokinetic evaluations were taken at each treatment visit. Pharmacokinetic analysis was performed for dasotraline. Safety monitoring included regular assessments of vital signs, clinical laboratory tests, and adverse events (AEs), as well as continuous telemetry monitoring for at least 12 hours post-dose. Treatment visits were separated by a washout interval of at least 21 days (from the day of dosing). Subjects returned for the safety follow-up visit within approximately 14 days following the end of the last treatment visit."}, "adults with ADHD": {"test_system": "adults with ADHD", "type": "in vivo, human", "description": "The study consisted of three periods including Screening, Treatment, and Washout/Follow-up, as described below. Efficacy was evaluated using the ADHD Rating Scale Version IV (ADHD RS-IV) with adult prompts. Effects on cognition were evaluated using the clinical data repository system. Safety and tolerability were monitored throughout the study by collection of physical examinations, 12-lead electrocardiograms (ECG), vital signs, adverse events (AEs), hematology, blood chemistry, urinalysis, Insomnia Severity Index (ISI), and Columbia—Suicide Severity Rating Scale (C-SSRS).\nSubjects self-administered the study drug at home on Days 1 through 28, at approximately the same time each night. After Day 1 subjects returned to the clinic on Days 8, 15, 22, and 29. Beginning at Day 1 and at every visit during the treatment period, the ADHD RS-IV, Wender-Reimherr Adult Attention Deficit Disorder Scale (WRAADDS), and clinical global impression—severity (CGI-S) were completed. The clinical data repository system was administered at Baseline, and Days 15 and 29.\nAt Days 36 and 43, subjects returned to the clinic and the ADHD RS-IV, WRAADDS, and CGI-S were completed. The clinical data repository system was completed on Day 43."}, "clinical": {"test": "clinical", "conditions": "human, in vivo", "description": "Upon oral administration, methylphenidate is rapidly and completely absorbed from the gastrointestinal tract. Peak concentrations occur 1 to 2 hours after dose administration. […] When methylphenidate and cocaine are administered intravenously, their pharmacokinetics are quite similar—the percentage of each drug taken up by the brain and their rates of uptake are parallel, although the clearance from the brain of cocaine is faster than that of methylphenidate. The receptor-binding affinities for cocaine and methylphenidate are similar at the dopamine transporter in the basal ganglia and the striatum. […] Thus it appears that abuse may be related to a rapid surge in dopamine levels in the striatum. […] The consequence of the slow increase in dopamine is the absence of a “high”, and the consequence of the long T1/2 is that serum concentration gradually increases to a steady state."}, "DAT sites": {"target": "T1, DAT sites (Homo sapiens, UniProt Q01959)", "T1 construct": "from tissue; host or cells: brain in vivo (my inference)", "T1 sequence (Q01959 whole entry)": "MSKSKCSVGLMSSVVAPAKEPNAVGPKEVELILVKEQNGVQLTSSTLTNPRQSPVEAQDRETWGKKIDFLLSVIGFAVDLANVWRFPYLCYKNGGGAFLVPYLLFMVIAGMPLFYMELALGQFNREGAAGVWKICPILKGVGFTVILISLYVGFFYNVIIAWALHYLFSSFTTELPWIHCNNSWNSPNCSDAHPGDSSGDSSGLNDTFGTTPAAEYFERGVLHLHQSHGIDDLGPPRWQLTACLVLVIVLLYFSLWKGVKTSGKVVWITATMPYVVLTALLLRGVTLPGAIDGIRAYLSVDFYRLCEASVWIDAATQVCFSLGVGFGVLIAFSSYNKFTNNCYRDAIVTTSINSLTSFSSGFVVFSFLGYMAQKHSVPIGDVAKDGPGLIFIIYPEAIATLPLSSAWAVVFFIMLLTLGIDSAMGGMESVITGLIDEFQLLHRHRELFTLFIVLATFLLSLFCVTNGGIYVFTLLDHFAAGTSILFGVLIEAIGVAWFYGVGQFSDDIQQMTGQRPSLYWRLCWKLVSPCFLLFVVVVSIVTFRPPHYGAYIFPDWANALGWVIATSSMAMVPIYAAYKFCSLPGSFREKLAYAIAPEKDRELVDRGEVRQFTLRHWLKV", "test": "DAT site occupancy versus serum concentration (other studies, not shown)", "conditions": "in vivo"}, "[2]": {"conditions": "cited from earlier work"}, "[3]": {"conditions": "methylphenidate 40 mg and 80 mg, single dose"}}, "data": [{"molecule": "N[C@@H]1CC[C@@H](c2ccc(Cl)c(Cl)c2)c2ccccc21", "note": "[dasotraline, (1R,4S)-4-(3,4-Dichlorophenyl)-1,2,3,4-tetrahydronaphthalen-1-amine]", "values": [{"measurement": "differences from placebo on pharmacodynamic endpoints", "setting": "[1]; 16 mg single dose", "result": "very few statistically significant differences from placebo"}, {"measurement": "effects on most pharmacodynamic endpoints versus placebo", "setting": "[1]; dasotraline 8, 16 and 36 mg, single dose", "result": "not significantly different from those of placebo"}, {"measurement": "anxiety leading to discontinuation", "setting": "adults with ADHD; 4 mg once daily", "result": 2.6, "unit": "%"}, {"measurement": "computerized cognitive assessment battery: attention, working memory, episodic memory", "setting": "adults with ADHD; 4 mg once daily", "result": "no significant main effects"}, {"measurement": "insomnia leading to discontinuation", "setting": "adults with ADHD; 4 mg once daily", "result": 2.6, "unit": "%"}, {"measurement": "Wender-Reimherr ADD total score", "setting": "adults with ADHD; 4 mg once daily versus placebo", "result": "did not improve enough to achieve statistical significance"}, {"measurement": "treatment-emergent adverse events (TEAEs), percentage", "setting": "adults with ADHD; 4 mg once daily versus placebo", "result": "higher than the percentage of TEAEs in the placebo group"}, {"measurement": "Wender-Reimherr subscore for the attention difficulties component", "setting": "adults with ADHD; 4 mg once daily versus placebo, week 4", "result": "statistically significant improvement"}, {"measurement": "serum concentration as a function of time", "setting": "adults with ADHD; 4 mg once daily, 4 weeks", "result": "began to plateau by week four"}, {"measurement": "ADHD RS-IV total score, LS mean change from baseline versus placebo", "setting": "adults with ADHD; 4 mg once daily, to week four, p<0.05, FIG. 1", "result": "statistically different at weeks three and four"}, {"measurement": "CGI-S score, LS mean change from baseline versus placebo", "setting": "adults with ADHD; 4 mg once daily, to week four, p<0.05, FIG. 2", "result": "statistically different at weeks three and four"}, {"measurement": "incidence of adverse events rated as severe", "setting": "adults with ADHD; 4 mg once daily, placebo group 2.7%", "result": 6, "unit": "%"}, {"measurement": "mean concentrations at steady state", "setting": "adults with ADHD; 4 mg/d", "result": 6, "unit": "ng/mL"}, {"measurement": "circulating DHPG levels", "setting": "adults with ADHD; 4 mg/d, indicative of central inhibition of norepinephrine transporters", "result": "decreased circulating DHPG levels"}, {"measurement": "time of administration to statistically significant improvement in ADHD", "setting": "adults with ADHD; oral dosage form containing 4 mg", "result": "about two to three"}, {"measurement": "Cmax", "setting": "clinical; 4 mg", "result": "~1.5", "unit": "ng/mL"}, {"measurement": "Tmax", "setting": "clinical; 4 mg", "result": "> 6", "unit": "h"}, {"measurement": "Tmax", "setting": "clinical; po", "result": "10 to 12", "unit": "h"}, {"measurement": "half-life", "setting": "clinical; po", "result": "47 to 77", "unit": "h"}, {"measurement": "serum concentration at which 50% DAT site occupancy was achieved", "setting": "DAT sites", "result": "5 to 6", "unit": "ng/mL"}]}, {"molecule": "COC(=O)C(c1ccccc1)C1CCCCN1", "note": "(stereo not shown) [methylphenidate]", "values": [{"measurement": "Drug Similarity Visual Analog Scale", "setting": "[1]; [3]", "result": "strongly identified as a stimulant"}, {"measurement": "majority of pharmacodynamic endpoints incl. Drug Liking Visual Analog Scale, versus placebo", "setting": "[1]; [3]", "result": "significant differences compared to placebo"}, {"measurement": "secondary stimulant measures", "setting": "[1]; [3]", "result": "strong stimulant effects"}, {"measurement": "pharmacokinetic half-life", "setting": "[2]; in vivo", "result": "approximately 2 hours"}, {"measurement": "time of peak concentrations after dose administration", "setting": "[2]; oral administration", "result": "1 to 2", "unit": "h"}]}]}
